# Test results taken from publication PMC10305287, “Design, Synthesis, and Evaluation of the COX-2 Inhibitory Activities of New 1,3-Dihydro-2H-indolin-2-one Derivatives” (Molecules, 2023).
# Entries after “also recorded” stand apart in the source; their conditions may differ.
# Key:
# [1] = target: T1, human recombinant COX-2 enzyme (Homo sapiens, UniProt P35354); experiment: In vitro COX-2 inhibitory assay (Cyclooxygenase-2 Inhibitor Screening Kit); type: biochemical; settings: for IC50: human recombinant COX-2, fluorescence kit, mean ± SD, n = 3; for COX-2 inhibitory activity (in words): human recombinant COX-2, screening kit
# T1 construct: purchased Beyotime Company, Shanghai, China
# T1 sequence (P35354 18-604): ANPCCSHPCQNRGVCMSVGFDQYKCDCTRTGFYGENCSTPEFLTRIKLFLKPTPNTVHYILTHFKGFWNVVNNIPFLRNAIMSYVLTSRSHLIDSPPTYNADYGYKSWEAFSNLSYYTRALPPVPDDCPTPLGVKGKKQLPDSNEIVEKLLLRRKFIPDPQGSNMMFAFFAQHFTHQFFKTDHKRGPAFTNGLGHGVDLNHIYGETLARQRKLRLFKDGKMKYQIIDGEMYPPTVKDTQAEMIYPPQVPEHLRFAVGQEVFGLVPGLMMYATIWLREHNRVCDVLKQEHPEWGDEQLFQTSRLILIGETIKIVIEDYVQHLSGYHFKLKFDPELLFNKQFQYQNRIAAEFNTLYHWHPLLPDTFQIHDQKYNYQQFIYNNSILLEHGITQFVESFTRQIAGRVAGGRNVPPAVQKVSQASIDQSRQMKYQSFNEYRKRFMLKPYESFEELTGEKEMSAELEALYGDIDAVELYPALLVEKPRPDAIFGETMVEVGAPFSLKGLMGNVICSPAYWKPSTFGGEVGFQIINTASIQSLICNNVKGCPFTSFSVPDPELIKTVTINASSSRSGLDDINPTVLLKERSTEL
# Protocol: The reaction was started by the addition of COX-2 substrate and allowed to proceed for 5 min. The intensity of fluorescence at an emission wavelength of 590 nm upon 560 nm excitation was measured using a microplate reader (Thermo Varioskan LUX, Waltham, MA, USA). All tests were repeated three times independently.
# RAW 264.7 cells = experiment: Cytotoxicity assay (CCK-8) on RAW 264.7 cells; type: cell-based, mouse
# Protocol: The RAW 264.7 murine macrophage cells were obtained from the Cell Bank of the Chinese Academy of Sciences (Shanghai, China). RAW 264.7 cells were cultured in DMEM (Dulbecco’s Modified Eagle Medium) medium supplemented with 10% fetal bovine serum and 1% penicillin/streptomycin at 37 °C and 5% CO2 in a saturated humidified incubator. The Cell Counting Kit-8 (CCK-8) method was used to evaluate the cytotoxicity of all the compounds on RAW 264.7 cells in vitro. […] After 24 h of cultivation, the cells were incubated with a CCK-8 solution (10 µL). After incubation at 37 °C and 5% CO2 for 2–4 h, the optical density (OD) was recorded at 450 nm by a microplate reader. The half-maximal inhibitory concentration (IC50) was calculated by SPSS 22.0 software. PDTC was used as a positive control.
# [2] = test system: NO production in LPS-stimulated RAW 264.7 cells; experiment: Inhibition of NO production in LPS-stimulated RAW 264.7 cells; type: cell-based, murine; settings: for Anti-inflammatory activity, NO production (in words): LPS-stimulated RAW 264.7 cells; for IC50: LPS-activated RAW 264.7 cells, mean ± SD, n = 3
# Protocol: RAW 264.7 cells were cultured in DMEM medium supplemented with 10% fetal bovine serum and 1% penicillin/streptomycin at 37 °C and 5% CO2 in a saturated humidified incubator. Then cells were seeded in 24-well plates (4 × 10^5 cells/well) after 24 h of incubation and treated with different concentrations of compounds (80, 40, 20, and 5 μM) for 2 h. The cells were stimulated with LPS (5 μg/mL) for 24 h, the supernatant was transferred to a new 24-well microtiter plate, and the NO concentration in the cell supernatant was calculated using an NO detection kit (Beyotime Company, Shanghai, China).
# COX-2 = settings: read-out: IC50 (COX-2); cited from earlier work
# [3] = CCK-8, concentration not stated
SMILES,IC50 [1] [µM],"Cytotoxicity (in words) (RAW 264.7 cells; CCK-8, at 100 μM)",Cytotoxicity (in words) (RAW 264.7 cells; [3]),melting point [°C],"Anti-inflammatory activity, NO production (in words) [2]","IC50 ([2]; Mus musculus, RAW264.7) [µM]",COX-2 inhibitory activity (in words) [1],IC50 [2] [µM],IC50 (COX-2) [µM]
CC(=O)N1C(=O)C(=Cc2cccc(C(F)(F)F)c2)c2cc(N)ccc21 [Compound 4e],3.34 ± 0.05,almost no cytotoxicity; also recorded: no significant cytotoxicity,weak cytotoxicity,165.9 to 166.2,obvious anti-inflammatory activity,13.5 ± 0.48,,,
CC(=O)N1C(=O)/C(=C\c2cccc(C(F)(F)F)c2)c2ccc(C(F)(F)F)cc21 [Compound 4a],19.9 ± 4.76,,weak cytotoxicity,131.2 to 132.1,obvious anti-inflammatory activity,17.8 ± 1.86,,,
"O=C1Cc2cc(N=Cc3cc(C(F)(F)F)cc(C(F)(F)F)c3)ccc2N1 [Compound 9i, 5-((3,5-bis(trifluoromethyl)benzylidene)amino)indolin-2-one]",2.42 ± 0.1,almost no cytotoxicity,no cytotoxicity,191.1 to 191.5,no anti-inflammatory activity,,good inhibitory activity,,
CC(=O)N1C(=O)/C(=C/c2cccc(C(F)(F)F)c2)c2ccc(C(F)(F)F)cc21 [Compound 4b],,,,91.3 to 92.8,,,,,
"S=C(S)N1CCCC1 [PDTC, Ammonium pyrrolidinedithiocarbamate, reference compound]",,,,,,,,13.7 ± 0.88,
O=C1Cc2cc(/N=C/c3cccc(C(F)(F)F)c3)ccc2N1 [Compound 9h],2.35 ± 0.04,almost no cytotoxicity,no cytotoxicity,166.3 to 166.8,no anti-inflammatory activity,,good inhibitory activity,,
CC(=O)N1C(=O)C(=Cc2ccccc2C(F)(F)F)c2ccc(Cl)cc21 [Compound 4k],> 20,,,131 to 133.6,,,,,
O=C1Nc2ccc(NS(=O)(=O)c3ccc([N+](=O)[O-])cc3)cc2C1=Cc1cccc(C(F)(F)F)c1 [Compound 9d],,,weak cytotoxicity,226.5 to 226.9,obvious anti-inflammatory activity,10 ± 0.27,,,
Cc1ccc(S(=O)(=O)Nc2ccc3c(c2)C(=Cc2cccc(C(F)(F)F)c2)C(=O)N3)cc1 [Compound 9f],,,,191.1 to 191.5,,,,,
CC(=O)N1C(=O)C(=Cc2cccc(C(F)(F)F)c2)c2ccccc21 [Compound 4j],,,weak cytotoxicity,121.5 to 123.3,obvious anti-inflammatory activity,16.3 ± 0.35,,,
COc1cccc(C=C2C(=O)N(C(C)=O)c3cc(Cl)ccc32)c1 [Compound 4s],,almost no cytotoxicity,,141.3 to 143.2,,,,,
CC(=O)N1C(=O)C(=Cc2ccc(C(F)(F)F)cc2)c2ccc(Cl)cc21 [Compound 4i],,,weak cytotoxicity,142.9 to 144.1,obvious anti-inflammatory activity,20.4 ± 1.61,,,
